Data published in ChEMBL document CHEMBL1201862, “PubChem BioAssay data set” (2004).
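Five compound concentrations were applied to cells in 96-well plates for 48 hours; endpoints were derived by simple linear interpolation of the resulting dose-response curve. GI50: concentration for 50% inhibition of growth.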 Calls of active or inactive are those of the source. No stated cut-off is given here; in the data, active = GI50 up to about 1.1 µM and inactive = higher.

What was measured:
Assay in all cases: growth of human tumour cells (NCI), 48 h
CCRF-CEM = test system: CCRF-CEM
HCC 2998 = test system: HCC 2998
IGROV-1 = test system: IGROV-1
LOX IMVI = test system: LOX IMVI
MDA-N = test system: MDA-N
Malme-3M = test system: Malme-3M
NCI/ADR-RES = test system: NCI/ADR-RES
RPMI-8226 = test system: RPMI-8226
RXF 393 = test system: RXF 393
SF-268 = test system: SF-268
SK-OV-3 = test system: SK-OV-3
SN12C = test system: SN12C
SNB-75 = test system: SNB-75
SR = test system: SR
SW-620 = test system: SW-620
TK-10 = test system: TK-10
UACC-257 = test system: UACC-257
COLO 205 = test system: COLO 205
SK-MEL-2 = test system: SK-MEL-2
SK-MEL-5 = test system: SK-MEL-5

SMILES | GI50 (CCRF-CEM) | GI50 (HCC 2998) | GI50 (IGROV-1) | GI50 (LOX IMVI) | GI50 (MDA-N) | GI50 (Malme-3M) | GI50 (NCI/ADR-RES) | GI50 (RPMI-8226) | GI50 (RXF 393) | GI50 (SF-268) | GI50 (SK-OV-3) | GI50 (SN12C) | GI50 (SNB-75) | GI50 (SR) | GI50 (SW-620) | GI50 (TK-10) | GI50 (UACC-257) | GI50 (COLO 205) | GI50 (SK-MEL-2) | GI50 (SK-MEL-5)
Cc1cn2c(/C=C3/C(=O)Nc4cccc(Cl)c43)c(Cl)nc2s1 | 13.5 µM (inactive) | 6.34 µM (inactive) | > 100 µM (inactive) | > 100 µM (inactive) | > 100 µM (inactive) | > 100 µM (inactive) | > 100 µM (inactive) | > 100 µM (inactive) | 25.4 µM (inactive) | 11.3 µM (inactive) | 27.7 µM (inactive) | > 100 µM (inactive) | 14.2 µM (inactive) | > 100 µM (inactive) | 3.18 µM (inactive) | 17.9 µM (inactive) | > 100 µM (inactive) |  |  | 
O=C(CSc1ncnc2[nH]cnc12)c1ccccc1 | > 65.8 µM (inactive) |  | > 100 µM (inactive) | 79.4 µM (inactive) | 86.3 µM (inactive) | > 100 µM (inactive) | 96.4 µM (inactive) | > 64.3 µM (inactive) | > 76.2 µM (inactive) | > 100 µM (inactive) | > 100 µM (inactive) | > 100 µM (inactive) |  | 92.5 µM (inactive) | > 100 µM (inactive) | > 66.7 µM (inactive) | > 100 µM (inactive) | > 91 µM (inactive) | > 43.2 µM (inactive) | 86.3 µM (inactive)
Cc1cccc2c1Oc1ccccc1C2NC(=O)c1ccc([N+](=O)[O-])cc1 (configuration not stated) | > 100 µM (inactive) |  | > 100 µM (inactive) | > 100 µM (inactive) | > 100 µM (inactive) | 86.7 µM (inactive) | 79.4 µM (inactive) | > 100 µM (inactive) | 23.7 µM (inactive) | 95.3 µM (inactive) |  | 29.3 µM (inactive) |  | > 100 µM (inactive) | > 100 µM (inactive) | > 100 µM (inactive) | > 100 µM (inactive) |  | > 100 µM (inactive) | > 100 µM (inactive)
Cc1ccc(/N=C2\OP(=O)(Nc3ccc(C)cc3)Oc3ccccc32)cc1 (configuration not stated) | > 100 µM (inactive) | > 100 µM (inactive) | > 100 µM (inactive) | > 100 µM (inactive) | > 100 µM (inactive) | > 100 µM (inactive) | > 100 µM (inactive) |  | 81.5 µM (inactive) | > 100 µM (inactive) | > 100 µM (inactive) | > 100 µM (inactive) | 36.4 µM (inactive) | > 100 µM (inactive) | > 100 µM (inactive) | > 100 µM (inactive) | > 100 µM (inactive) | > 100 µM (inactive) | > 100 µM (inactive) | 73.1 µM (inactive)
O=C(Nc1nn(C(=O)c2cccnc2)c(=O)s1)c1ccc(Cl)cc1 | 34 µM (inactive) | > 100 µM (inactive) |  | > 100 µM (inactive) | > 100 µM (inactive) | 31.6 µM (inactive) | > 100 µM (inactive) |  | 15.6 µM (inactive) | 20.7 µM (inactive) | 56.2 µM (inactive) | > 100 µM (inactive) | 29.4 µM (inactive) | > 100 µM (inactive) | > 100 µM (inactive) | 76.6 µM (inactive) | > 100 µM (inactive) | 40.6 µM (inactive) | > 100 µM (inactive) | 31.4 µM (inactive)
Cc1nc(C)c(N2CCN(C(=O)NC(CCC(=O)O)C(=O)O)CC2)c(O)n1 (configuration not stated) | > 100 µM (inactive) | > 100 µM (inactive) | > 100 µM (inactive) | > 100 µM (inactive) | > 100 µM (inactive) | > 100 µM (inactive) | > 100 µM (inactive) | > 100 µM (inactive) | > 100 µM (inactive) | > 100 µM (inactive) | > 100 µM (inactive) | > 100 µM (inactive) | < 0.01 µM (active) | > 100 µM (inactive) | > 100 µM (inactive) | > 100 µM (inactive) | > 100 µM (inactive) | > 100 µM (inactive) |  | 
Brc1ccc(-c2cc(-c3ccc4c(c3)OCO4)c(-c3cccs3)n2Cc2ccccc2)cc1 | > 100 µM (inactive) | > 100 µM (inactive) | > 100 µM (inactive) |  | > 100 µM (inactive) |  | > 100 µM (inactive) | > 100 µM (inactive) | > 100 µM (inactive) | > 100 µM (inactive) | > 100 µM (inactive) | > 100 µM (inactive) | > 100 µM (inactive) | > 100 µM (inactive) | > 100 µM (inactive) | > 100 µM (inactive) | > 100 µM (inactive) | > 100 µM (inactive) | > 100 µM (inactive) | > 100 µM (inactive)
CC(=O)OCC1OC(n2c(C#N)cc(=O)[nH]c2=O)CC1OC(C)=O (configuration not stated) | > 100 µM (inactive) | > 10 µM (inactive) | > 100 µM (inactive) | > 100 µM (inactive) | > 100 µM (inactive) | > 100 µM (inactive) | > 100 µM (inactive) |  | > 100 µM (inactive) | > 100 µM (inactive) | > 100 µM (inactive) | > 100 µM (inactive) | > 100 µM (inactive) | > 100 µM (inactive) | > 100 µM (inactive) | > 100 µM (inactive) | > 100 µM (inactive) | > 100 µM (inactive) | > 100 µM (inactive) | > 100 µM (inactive)
CN(C)/C=N/c1ccc2nonc2c1 | > 100 µM (inactive) | > 100 µM (inactive) | > 100 µM (inactive) |  | > 100 µM (inactive) | > 100 µM (inactive) | > 100 µM (inactive) | > 100 µM (inactive) | > 100 µM (inactive) | > 100 µM (inactive) | > 100 µM (inactive) | > 100 µM (inactive) | > 100 µM (inactive) | > 100 µM (inactive) | > 100 µM (inactive) | > 100 µM (inactive) | > 100 µM (inactive) | > 100 µM (inactive) | > 100 µM (inactive) | > 100 µM (inactive)
Cc1cc2c(cc1Cl)SC(c1ccccc1)C(=O)NS2(=O)=O (configuration not stated) | 47.4 µM (inactive) | 30.3 µM (inactive) | 40.8 µM (inactive) | 31.6 µM (inactive) | 34.1 µM (inactive) |  | 29.5 µM (inactive) | 34 µM (inactive) | 31.4 µM (inactive) | 33.3 µM (inactive) | 31.9 µM (inactive) |  | 19.7 µM (inactive) | 27.5 µM (inactive) | 40 µM (inactive) | 37.6 µM (inactive) | 28.2 µM (inactive) |  | 17.3 µM (inactive) | 21.6 µM (inactive)
CCOC(=O)[C@@H]1ON2O[C@H](OC3CCCCC3c3ccccc3)C[C@H]3OC(=O)[C@@H]1C32 (some centres not stated) | 0.209 µM (active) | 64.6 µM (inactive) | > 100 µM (inactive) | > 100 µM (inactive) | > 100 µM (inactive) |  | > 100 µM (inactive) | > 100 µM (inactive) | > 100 µM (inactive) | > 100 µM (inactive) | > 100 µM (inactive) | > 100 µM (inactive) | > 100 µM (inactive) | > 100 µM (inactive) | > 100 µM (inactive) | > 100 µM (inactive) | > 100 µM (inactive) | > 100 µM (inactive) |  | > 100 µM (inactive)
Oc1ccc([C@H]2c3c(O)cc(O)cc3C3c4c(cc(O)cc4[C@@H]2[C@H]2c4cc(O)cc5c4C(c4cc(O)cc(O)c4[C@@H]2c2ccc(O)cc2)[C@@H](c2ccc(O)cc2)O5)O[C@@H]3c2ccc(O)cc2)cc1 (some centres not stated) | 1.53 µM (inactive) | 0.452 µM (active) | 6.73 µM (inactive) | 2.41 µM (inactive) | 0.871 µM (active) | 0.411 µM (active) | > 100 µM (inactive) | 41.4 µM (inactive) | 0.0486 µM (active) | 1.61 µM (inactive) |  | > 100 µM (inactive) | 0.5 µM (active) | 16.9 µM (inactive) |  | > 100 µM (inactive) | 0.356 µM (active) | 0.348 µM (active) | 1.58 µM (inactive) | 7.41 µM (inactive)
O=C1Nc2ccccc2C1Cc1ccc([N+](=O)[O-])cc1 (configuration not stated) | 20.1 µM (inactive) | > 100 µM (inactive) | 21.6 µM (inactive) | > 100 µM (inactive) | 71.4 µM (inactive) |  | > 100 µM (inactive) | 34.8 µM (inactive) | > 100 µM (inactive) | > 100 µM (inactive) | > 100 µM (inactive) | > 100 µM (inactive) | > 100 µM (inactive) | 19.4 µM (inactive) | > 100 µM (inactive) | > 100 µM (inactive) | > 100 µM (inactive) | 50 µM (inactive) | > 100 µM (inactive) | 57.5 µM (inactive)
COC(=O)C(Cc1c[nH]c2ccccc12)NP(=O)(O)OCC1OC(n2cc(Br)c(=O)[nH]c2=O)CC1O (configuration not stated) | > 100 µM (inactive) | > 100 µM (inactive) | > 100 µM (inactive) | > 100 µM (inactive) | > 100 µM (inactive) | > 100 µM (inactive) | > 100 µM (inactive) |  | > 100 µM (inactive) | > 100 µM (inactive) | > 100 µM (inactive) | > 100 µM (inactive) | > 100 µM (inactive) | > 100 µM (inactive) | > 100 µM (inactive) | > 100 µM (inactive) | > 100 µM (inactive) | > 100 µM (inactive) | > 100 µM (inactive) | > 100 µM (inactive)
N#Cc1c(-c2ccc(Cl)cc2)c2c([nH]c1=O)-c1ccccc1SC2 | 26.3 µM (inactive) |  | 56.9 µM (inactive) | 22 µM (inactive) | 77.6 µM (inactive) | 33.1 µM (inactive) | 29.2 µM (inactive) | 16.7 µM (inactive) | 25.2 µM (inactive) | 41.9 µM (inactive) | 32.7 µM (inactive) | 54.3 µM (inactive) | 27.5 µM (inactive) | 29.2 µM (inactive) | > 100 µM (inactive) | 16.2 µM (inactive) | > 100 µM (inactive) | 22.3 µM (inactive) | 52.6 µM (inactive) | > 100 µM (inactive)
